In patent US5187163A, “Anti-viral compounds, dosage forms and methods” (Baker Norton Pharmaceuticals, Inc., priority 1992, dated 1993):
Structures can show the parent of a compound that is named as a salt. Where two headings read alike, the source gives them in different places.

Columns and labels:
Assay type in all cases: cell-based
[1] = Cytotoxicity (cell viability, trypan blue exclusion) in uninfected MT-2 cells; settings: human; day 14, uninfected MT-2 cells; mean of triplicate cultures from two sets of experiments; linear regression; read-out: ID50 (drug concentration required to reduce the number of uninfected MT2 cells by 50%)
Protocol: (§1) Target MT-2 cells (an HTLV-I immortalized CD4+lymphoblastoid cell line) were propagated in growth medium (D-MEM supplemented with 15% heat-inactivated fetal bovine serum, 2mM glutamine, and 1% penicillin-streptomycin).
(§2) MT-2 cells (2×10^5 cells per ml) were exposed to multiple drug concentrations (performed in triplicate). The medium was changed every 3-4 days, followed by the addition of fresh drug. Cell viability was determined by the trypan blue exclusion method and compared to controls without drug.
(§3) The comparative HIV inhibitory effects of nucleosides and the novel nucleoside dimers are shown on Table 1. The 50% inhibitory dose (ID50) and 50% effective dose (ED50) of each compound were calculated using linear regression analysis from the results of a 14 day assay that monitored cell viability and the expression of HIV antigen by cellular fluorescence.
(§4) The growth inhibitory effects of the compounds on MT-2 cells that were not exposed to the virus were compared. According to their ID50, the compounds could be classified into three major groups. […] When the cytotoxic effects of the compounds were tested against the human cell lines H9 and U937, similar toxicity profiles were seen.
(§5) from two sets of experiments. Linear regression analysis was used to
(§6) determine the ID50 and ED50. ID50, drug concentration
(§7) required to reduce the number of uninfected MT2 cells by 50% on day 14.

MT-2 cells = assay: as above; settings: uninfected MT-2 cells, in words
Protocol: as §1, §2, §3, §4, §5, §6, §7

HIV (TM) [2] = assay: HIV infectivity assay in MT-2 cells (HIV antigen expression by immunofluorescence, 14 days); settings: for EC50: read-out: ED50 (drug concentration achieving 50% inhibition of HIV expression assessed by immunofluorescence); for CTI, cytotherapeutic index (ID50/ED50): ID50/ED50, day 14, MT-2 cells; for anti-HIV activity profile according to ED50 / cytotherapeutic index, ranking: in words
Protocol: (§8) An isolate of HIV (TM) was obtained from the culture supernatant of normal peripheral blood mononuclear cells infected with virus isolated from a patient with AIDS. Supernatant from H9 cells infected with HIV (TM) was aliquoted at peak reverse transcriptase activity and kept frozen at -85° C. until use.
as §1
(§9) Target MT-2 cells were exposed to DEAE-dextran (25 ug/ml, Sigma) for 20 minutes, washed and infected with HIV (TM) (MOI=0.001) at 37° C. for 1 hour. MT-2 cells (3×10^5 per ml) were placed in growth medium and transferred to a 24-well plastic tray followed by the addition of drug. The cells were carried at 37° C. in humidified air containing 5% CO2 for 14 days. Every 3-4 days, the medium was changed and fresh drug added. At each change of medium, cells and supernatants were assayed for measures of HIV expression. Uninfected and infected MT-2 cells without exposure to drug were used as controls. All cultures were performed in triplicate on two sets of experiments.
*The results are expressed as the arithmetic mean of triplicate cultures
as §5
ED50, drug concentration achieving 50% inhibition of HIV expression
assessed by immunofluorescence on day 14.

HIV (TM) [3] = assay: 4 day HIV-induced syncytium inhibition assay in MT-2 cells; settings: for EC100: Human immunodeficiency virus 1, MT2, 96 h, read-out: concentration for complete/full protection of MT-2 cells from the formation of syncytia; for protective effect against the development of HIV-induced syncytia: among the dimers, 4 day assay, in words
Protocol: as §8, with “use. HIV (TM) infectivity assays using sequential fivefold dilutions (performed in quadruplicate) determined the infectious virus titer (Reed-Muench method) to be 10^4.5 TC ID50 per ml.” for “use.”
as §1, §9
MT-2 cells were chosen because of their sensitivity to HIV infection with the formation of giant syncytia that are quantifiable. The cytopathic effect of HIV could be monitored as a function of the input virus inoculum. When MT-2 cells were monitored in a 14 day assay, a MOI of 0.001 gave rise to the formation of syncytia after 4 days (>400 per well) and peak reverse transcriptase levels by day 8.
To investigate the inhibitory effects of the drugs on HIV-induced syncytia formation, the nucleoside dimers were compared to their monomers and their combinations at multiple concentrations in a 4 day syncytium inhibition assay.

[4] = tested on: Reverse transcriptase (RT); assay: Inhibition of reverse transcriptase activity in culture supernatant of HIV-infected H9 cells; settings: for Reverse Transcriptase activity in culture supernatant: H9 cells, MOI = 1.0
Protocol: *Target cells = H9 cells. MOI = 1.0. Media changes with the addition of
fresh drug were performed at 3-4 day intervals. Results are expressed as
CPMReverse Transcriptase activity per ml in culture supernatant. CPM
>5,000 signifies abnormal elevations in Reverse Transcriptase activity.
The results represent the mean of duplicate studies in one experiment.

[5] = Human immunodeficiency virus 1, MT2, 336 h
[6] = 1 Ug/ml, day 7, control (no drug) 11,000
[7] = 1 Ug/ml, day 11, control (no drug) 38,000
[8] = 1 Ug/ml, day 14, control (no drug) 34,000
[9] = 5 Ug/ml, day 7, control (no drug) 11,000
[10] = 5 Ug/ml, day 11, control (no drug) 38,000
[11] = 5 Ug/ml, day 14, control (no drug) 34,000

| Structure (SMILES) | CC50 at 336 h [1] [µM] | toxicity group according to ID50 (MT-2 cells) | EC50 (HIV (TM) [2]; [5]) [µM] | CTI, cytotherapeutic index (ID50/ED50) (HIV (TM) [2]; 20160 min) | anti-HIV activity profile according to ED50 (HIV (TM) [2]) | EC100 (HIV (TM) [3]) [µM] | protective effect against the development of HIV-induced syncytia (HIV (TM) [3]) | cytotherapeutic index, ranking (HIV (TM) [2]) | Reverse Transcriptase activity in culture supernatant [4, 6] | Reverse Transcriptase activity in culture supernatant [4, 7] | Reverse Transcriptase activity in culture supernatant [4, 8] | Reverse Transcriptase activity in culture supernatant [4, 9] | Reverse Transcriptase activity in culture supernatant [4, 10] | Reverse Transcriptase activity in culture supernatant [4, 11] | also measured |
| --- | --- | --- | --- | --- | --- | --- | --- | --- | --- | --- | --- | --- | --- | --- | --- |
| Cc1cn(C2CC(N=[N+]=[N-])C(COP(=O)(O)OCC3OC(n4cc(C)c(=O)[nH]c4=O)CC3N=[N+]=[N-])O2)c(=O)[nH]c1=O (stereo not shown) [AZT-P-AZT, reference compound] | 60 | highest toxicity | 1.5 | 40 | most potent | – | – | – | – | – | – | – | – | – | – |
| Cc1cn([C@H]2C[C@H](N=[N+]=[N-])[C@@H](COP(=O)(OCCC#N)OC[C@@H]3CC[C@H](n4cnc5c(N)ncnc54)O3)O2)c(=O)[nH]c1=O (stereo partly shown) [AZT-P(CyE)-ddA] | 210 | moderate toxicity | 0.7 | 300 | most potent | 0.5 | strongest protective effect | highest | 6,000 CPM per ml | 43,000 CPM per ml | 36,000 CPM per ml | 1,000 CPM per ml | 4,500 CPM per ml | 12,000 CPM per ml | – |
| Nc1ncnc2c1ncn2[C@H]1CC[C@@H](CO)O1 [ddA, 2',3'-dideoxyadenosine, reference compound] | 400 | least toxicity | 7 | 57 | weaker activities | 10 | – | – | – | – | – | – | – | – | Reverse Transcriptase activity in culture supernatant ([4]; 1 uM, day 7, control (no drug) 11,000): 5,500 CPM per ml; Reverse Transcriptase activity in culture supernatant ([4]; 1 uM, day 11, control (no drug) 38,000): 45,000 CPM per ml; Reverse Transcriptase activity in culture supernatant ([4]; 1 uM, day 14, control (no drug) 34,000): 39,500 CPM per ml; Reverse Transcriptase activity in culture supernatant ([4]; 10 uM, day 7, control (no drug) 11,000): 500 CPM per ml; Reverse Transcriptase activity in culture supernatant ([4]; 10 uM, day 11, control (no drug) 38,000): 3,000 CPM per ml; Reverse Transcriptase activity in culture supernatant ([4]; 10 uM, day 14, control (no drug) 34,000): 4,500 CPM per ml |
| Cc1cn([C@H]2C[C@H](N=[N+]=[N-])[C@@H](COP(=O)(O)OC[C@@H]3CC[C@H](n4cnc5c(N)ncnc54)O3)O2)c(=O)[nH]c1=O [AZT-P-ddA, azido-beta-thymidine-2',3'-dideoxyadenosine phosphate ammonium salt] | 200 | moderate toxicity | 0.8 | 250 | most potent | 0.5 | strongest protective effect | highest | 1,500 CPM per ml | 12,000 CPM per ml | 26,500 CPM per ml | 500 CPM per ml | 500 CPM per ml | 500 CPM per ml | activity in RT assay compared with AZT ([4]; in words): comparable to that of AZT |
| Cc1cn([C@H]2C[C@H](N=[N+]=[N-])[C@@H](COP(=O)(O)OC[C@@H]3CC[C@H](n4cnc5c(=O)[nH]cnc54)O3)O2)c(=O)[nH]c1=O [AZT-P-ddI, azido-β-thymidine-2',3'-dideoxyinosine phosphate ammonium salt] | 240 | moderate toxicity | 1 | 240 | most potent | – | – | highest | 1,000 CPM per ml | 3,000 CPM per ml | 10,000 CPM per ml | 1,000 CPM per ml | 1,500 CPM per ml | 25,000 CPM per ml | duration of inhibition of the enzyme (RT) ([4]; 1 ug/ml): at least 11 days |
| O=c1[nH]cnc2c1ncn2[C@H]1CC[C@@H](CO)O1 [ddI, 2',3'-dideoxyinsine, reference compound] | 450 | least toxicity | – | 60 | weaker activities | – | – | – | – | – | – | – | – | – | EC50 (HIV (TM) [2]; day 14, HIV-infected MT-2 cells, MOI 0.001, mean of triplicate cultures from two sets of experiments, linear regression, 20160 min): 7.5 µM |
